Results: PubChem BioAssay AID256 (DTP/NCI, 2004)
Toxic doses and inconclusive results are not listed. The calls were made as follows: active = survival T/C of 150% or more; inactive = T/C below 125% in these data.

System: CD2F1 mice, L1210 leukemia ip, survival T/C
Test: NCI In Vivo Anticancer Drug Screen. Data for tumor model L1210 Leukemia (intraperitoneal) in CD2F1 (CDF1) mice
Conditions: endpoint: mean survival time, higher = longer survival
In short: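 In this screen, transplantable tumors were grown in mice given either the compound or its vehicle. Results were expressed as the treated measurement relative to the control measurement.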

[1] = dose: 25.0 mg/kg/injection, schedule: Q04DX003 (ip), vehicle: saline with Tween-80
[2] = dose: 50.0 mg/kg/injection, schedule: Q04DX003 (ip), vehicle: saline with Tween-80
[3] = dose: 100.0 mg/kg/injection, schedule: Q01DX009 (ip), vehicle: saline with Tween-80
[4] = dose: 100.0 mg/kg/injection, schedule: Q04DX003 (ip), vehicle: saline with Tween-80
[5] = dose: 200.0 mg/kg/injection, schedule: Q01DX009 (ip), vehicle: saline with Tween-80
[6] = dose: 200.0 mg/kg/injection, schedule: Q04DX003 (ip), vehicle: saline with Tween-80
[7] = dose: 400.0 mg/kg/injection, schedule: Q01DX009 (ip), vehicle: saline with Tween-80
[8] = dose: 400.0 mg/kg/injection, schedule: Q04DX003 (ip), vehicle: saline with Tween-80
[9] = dose: 100.0 mg/kg/injection, schedule: Q04DX002 (ip), vehicle: saline with Tween-80
[10] = dose: 100.0 mg/kg/injection, schedule: Q04DX003 (ip), vehicle: saline
[11] = dose: 200.0 mg/kg/injection, schedule: Q04DX003 (ip), vehicle: saline
[12] = dose: 400.0 mg/kg/injection, schedule: Q04DX003 (ip), vehicle: saline
[13] = dose: 25.0 mg/kg/injection, schedule: Q04DX003 (ip), vehicle: saline
[14] = dose: 50.0 mg/kg/injection, schedule: Q04DX003 (ip), vehicle: saline
[15] = dose: 100.0 mg/kg/injection, schedule: Q01DX001 (ip), vehicle: saline
[16] = dose: 200.0 mg/kg/injection, schedule: Q01DX001 (ip), vehicle: saline
[17] = dose: 400.0 mg/kg/injection, schedule: Q01DX001 (ip), vehicle: saline
[18] = dose: 25.0 mg/kg/injection, schedule: Q01DX009 (ip), vehicle: saline with Tween-80
[19] = dose: 6.25 mg/kg/injection, schedule: Q01DX009 (ip), vehicle: saline
[20] = dose: 200.0 mg/kg/injection, schedule: Q04DX002 (ip), vehicle: saline with Tween-80

Measured: T/C

CC1(C)N=C(N)N=C(N)N1c1ccc(Cl)c(C(F)(F)F)c1
inactive: [1] 109 % of control | [2] 124 % of control

O=c1cc(Cl)c(=O)[nH][nH]1
inactive: dose: 100.0 mg/kg/injection, schedule: Q01DX001 (ip), vehicle: other 104 % of control | [3] 92 % of control | [4] 94 % of control | dose: 200.0 mg/kg/injection, schedule: Q01DX001 (ip), vehicle: other 97 % of control | [5] 94 % of control | [6] 94 % of control | dose: 400.0 mg/kg/injection, schedule: Q01DX001 (ip), vehicle: other 98 % of control | [7] 97 % of control | [8] 96 % of control

CN(C)c1nc(-c2ccncc2)nc(N2CCOCC2)n1
inactive: [9] 92 % of control

Nc1nc(=S)c2n[nH]nc2[nH]1
inactive: dose: 25.0 mg/kg/injection, schedule: Q01DX001 (ip), vehicle: saline with Tween-80 102 % of control | dose: 50.0 mg/kg/injection, schedule: Q01DX001 (ip), vehicle: saline with Tween-80 104 % of control

CC(C)NC(=O)/C=C/C(=O)O
inactive: [10] 100 % of control | [11] 100 % of control | [12] 100 % of control

CC(C)CC(Br)C(=O)NCC(=O)O (stereo not given)
inactive: [4] 95 % of control | [6] 113 % of control | [8] 105 % of control

NC(=O)CCC(=O)NCCN1CC1
inactive: [13] 97 % of control | [14] 97 % of control | [15] 104 % of control | [10] 96 % of control | [16] 98 % of control | [17] 115 % of control

N#CCCCN1CCCCCC1
inactive: [4] 97 % of control

c1ccc2c(c1)[nH]c1c3[n+](ccc12)CCCC3
inactive: [15] 119 % of control

[NH-]c1ncnc2c1ncn2C1OC(CO)C(O)C1O.[NH-]c1ncnc2c1ncn2C1OC(CO)C(O)C1O.[Pt+2] (stereo not given)
inactive: dose: 12.5 mg/kg/injection, schedule: Q04DX003 (ip), vehicle: saline with Tween-80 92 % of control | [1] 95 % of control | [2] 92 % of control | [4] 89 % of control | [6] 86 % of control

O=C(O)c1cc(-c2ccc(Cl)cc2)nc2c1ccc1ccccc12
inactive: [15] 102 % of control | [16] 97 % of control

O=C(O)CCC(NC(=O)OCc1ccccc1)C(=O)O (stereo not given)
inactive: [3] 98 % of control | [5] 94 % of control | [7] 96 % of control

NC(N)=NC(N)=Nc1cnccn1
inactive: dose: 25.0 mg/kg/injection, schedule: Q01DX009 (ip), vehicle: saline sonified 91 % of control | [13] 104 % of control | dose: 50.0 mg/kg/injection, schedule: Q01DX009 (ip), vehicle: saline sonified 97 % of control | [14] 98 % of control | dose: 75.0 mg/kg/injection, schedule: Q01DX001 (ip), vehicle: saline 95 % of control | dose: 100.0 mg/kg/injection, schedule: Q01DX009 (ip), vehicle: saline sonified 95 % of control | [10] 104 % of control | dose: 150.0 mg/kg/injection, schedule: Q01DX001 (ip), vehicle: saline 93 % of control

O=C(COc1ccc(Cl)c(Cl)c1)Nc1ccc(Cl)cc1
inactive: dose: 6.25 mg/kg/injection, schedule: Q01DX009 (ip), vehicle: saline with Tween-80 98 % of control | dose: 12.5 mg/kg/injection, schedule: Q01DX009 (ip), vehicle: saline with Tween-80 98 % of control | [18] 98 % of control

[CH3][Sn]([CH3])([Br])[CH2]CC[CH2][Sn]([CH3])([CH3])[Br]
inactive: dose: 0.02 mg/kg/injection, schedule: Q01DX009 (ip), vehicle: saline 100 % of control | dose: 0.04 mg/kg/injection, schedule: Q01DX009 (ip), vehicle: saline 104 % of control | dose: 0.08 mg/kg/injection, schedule: Q01DX009 (ip), vehicle: saline 102 % of control | [19] 110 % of control

C[N+](C)(C)C.[Cl][Fe]([Cl])([Cl])[Cl]
inactive: dose: 3.13 mg/kg/injection, schedule: Q01DX009 (ip), vehicle: saline 94 % of control | [19] 97 % of control | dose: 12.5 mg/kg/injection, schedule: Q01DX009 (ip), vehicle: saline 91 % of control

O=[N+]([O-])c1ccc(Cl)c(CNc2ncnc3c2ncn3C2CCCCO2)c1 (stereo not given)
inactive: dose: 100.0 mg/kg/injection, schedule: Q01DX009 (ip), vehicle: acetone 95 % of control | dose: 200.0 mg/kg/injection, schedule: Q01DX009 (ip), vehicle: acetone 97 % of control | dose: 400.0 mg/kg/injection, schedule: Q01DX009 (ip), vehicle: acetone 93 % of control

c1cncc(CCc2cccnc2)c1
inactive: [10] 100 % of control | [11] 100 % of control

C=CCNC(=O)C[n+]1cccc(C(=O)Nc2ccc(Cl)cc2)c1
inactive: [18] 97 % of control | dose: 50.0 mg/kg/injection, schedule: Q01DX009 (ip), vehicle: saline with Tween-80 96 % of control | [3] 102 % of control | [4] 107 % of control

Nc1ccc(CCCCc2ccccc2)cc1
inactive: dose: 100.0 mg/kg/injection, schedule: Q04DX003 (ip), vehicle: acetone 107 % of control

CCCCC1CCCCC1
inactive: [4] 95 % of control | [6] 100 % of control | [8] 90 % of control

O=C(c1ccccc1)N(C(=O)c1ccccc1)c1cccc(N(C(=O)c2ccccc2)C(=O)c2ccccc2)n1
inactive: dose: 50.0 mg/kg/injection, schedule: Q04DX002 (ip), vehicle: saline with Tween-80 101 % of control | [9] 97 % of control | [20] 93 % of control

CCOC(=O)C(CC)(OC(C)=O)C(=O)C[n+]1ccccc1 (stereo not given)
inactive: [15] 108 % of control | [10] 101 % of control | [16] 106 % of control | [11] 101 % of control | [17] 106 % of control | [12] 101 % of control

NC(CSC1(c2ccc(Cl)cc2)c2ccccc2-c2ccccc21)C(=O)O (stereo not given)
inactive: dose: 25.0 mg/kg/injection, schedule: Q01DX009 (ip), vehicle: saline 100 % of control | dose: 50.0 mg/kg/injection, schedule: Q01DX009 (ip), vehicle: saline 96 % of control | dose: 100.0 mg/kg/injection, schedule: Q01DX009 (ip), vehicle: saline 96 % of control

CC(=O)OCC(C)CCC1OC2CC3C4CCC5CC(OC(C)=O)CCC5(C)C4CCC3(C)C2C1C (stereo not given)
inactive: dose: 100.0 mg/kg/injection, schedule: Q01DX001 (ip), vehicle: saline with Tween-80 100 % of control | dose: 200.0 mg/kg/injection, schedule: Q01DX001 (ip), vehicle: saline with Tween-80 101 % of control | dose: 400.0 mg/kg/injection, schedule: Q01DX001 (ip), vehicle: saline with Tween-80 94 % of control

COc1cc([N+](=O)[O-])ccc1C(=O)O
inactive: dose: 100.0 mg/kg/injection, schedule: Q01DX001 (ip), vehicle: Klucel (hydroxypropylcellulose) (HPC) 95 % of control | dose: 200.0 mg/kg/injection, schedule: Q01DX001 (ip), vehicle: Klucel (hydroxypropylcellulose) (HPC) 100 % of control | dose: 400.0 mg/kg/injection, schedule: Q01DX001 (ip), vehicle: Klucel (hydroxypropylcellulose) (HPC) 103 % of control

Cc1ccccc1NC(=O)Oc1c(Cl)cc(Cl)c2ccccc12
inactive: [9] 89 % of control | [20] 93 % of control | dose: 400.0 mg/kg/injection, schedule: Q04DX002 (ip), vehicle: saline with Tween-80 101 % of control
